Measurements: patent publication US12435066B2, “Substituted tricyclic compounds” (LUPIN LIMITED, priority 2019, dated 2025)
pIC50: −log10 of the molar value.

Assays:
pERK in DLD1 cells = assay: ERK phosphorylation assay after EGF stimulation; assay type: cell-based; details: Homo sapiens, DLD-1, compound 2 h, 200 ng/ml hEGF 5 minutes, alphascreen pERK, read-out: ERK phosphorylation inhibition IC50
Procedure, shortened: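 DLD1 cells pretreated 2 h with compound, then stimulated 5 minutes with 200 ng/ml hEGF. Lysates assayed for ERK1/2 p-T202/Y204 by AlphaScreen SureFire, read after 2 h at 25-28° C.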

DLD-1 cell line = assay: Colony formation assay (single agent activity); assay type: cell-based; details: Homo sapiens, 168 h, 7 days of drug treatment, crystal violet
Experimental: Example-129: Colony Formation Assay Protocol (Single Agent Activity)
DLD-1/MIA PaCa-2 cells were seeded at a density of 300/500 cells per well respectively in 48 well tissue culture plate and cells were allowed to settle overnight (16 to 20 h). On the following day, cells were treated with different concentrations of test or reference compound and the assay plates were incubated under standard cell culture conditions (37° C. with 5% CO2). After 7 days of drug treatment, media was removed from each well and plates were washed with PBS. Colonies were stained with crystal violet solution for 2-5 min. Plate was then washed carefully under tap water and air dried. For quantitation, 200 μL destaining solution containing 10% Glacial acetic acid was added to each well and crystal violet from the colonies was allowed to solubilize for 20-30 min on plate shaker. After solubilization, absorbance of the extracted stain was recorded in BioTek Synergy Neo II plate reader at 590 nm. Absorbance values were directly proportional to colony growth.

[1] = target: T1, hSOS1 mediated nucleotide exchange on hKRASG12C (Homo sapiens, UniProt Q07889); assay: biochemical
T1 sequence (Q07889 564-1049): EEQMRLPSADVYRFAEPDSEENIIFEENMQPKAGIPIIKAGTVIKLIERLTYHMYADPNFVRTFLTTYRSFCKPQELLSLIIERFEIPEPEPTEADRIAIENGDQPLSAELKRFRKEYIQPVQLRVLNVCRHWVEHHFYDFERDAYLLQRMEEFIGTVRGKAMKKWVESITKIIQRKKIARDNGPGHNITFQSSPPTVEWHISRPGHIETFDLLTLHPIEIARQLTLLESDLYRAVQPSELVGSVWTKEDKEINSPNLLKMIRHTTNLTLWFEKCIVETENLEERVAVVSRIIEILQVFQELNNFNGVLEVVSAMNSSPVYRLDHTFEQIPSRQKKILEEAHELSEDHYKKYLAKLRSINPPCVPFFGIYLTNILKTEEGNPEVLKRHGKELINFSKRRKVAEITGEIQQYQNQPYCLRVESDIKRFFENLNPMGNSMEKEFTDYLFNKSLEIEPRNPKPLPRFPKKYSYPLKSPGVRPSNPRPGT
Experimental: Example-127: Guanine Nucleotide Exchange Assay (GNEA)
GNEA assay was conducted to evaluate the effects of compounds on the nucleotide exchange on hKRASG12C mediated by hSOS1. Inhibitory effect of compounds on HIS-hSOS1, 564-1049aa mediated GTP loading onto GST-hKRASG12C, 1-169aa both expressed and purified in-house was assessed using HTRF detection technology in biochemical assay. Compounds were pre-incubated with hSOS1 working solution containing 10-50 nM hSOS1 and 200 nM EDA-GTP-DY-647P1 (Custom manufactured, Jena Biosciences) per well of a 384 well plate (Perkin Elmer, Cat #6007290) for 10 min at 20° C. in the assay buffer containing 10 mM HEPES, pH 7.4, 150 mM NaCl, 5 mM MgCl2, 1 mM DTT, 0.05% BSA fraction V and 0.0025% Igepal. Reaction was initiated by adding working solution of hKRASG12C containing 25-125 nM hKRASG12C and MAb Anti-GST-Tb (#61GSTTLA, Cisbio BioAssays) in assay buffer. Total assay volume was 15 μL. Reaction was continued for 30-60 min at 20° C. HTRF signal was recorded in PHERAStar microplate reader. Ratio of signal obtained at 665 nm and 620 nm was used to compute the percent inhibition of compound as follows.
Where, Positive control=hSOS1+EDA-GTP-DY-647P1+hKRASG12C+MAb Anti-GST-Tb Negative control=EDA-GTP-DY-647P1+hKRASG12C+MAb Anti-GST-Tb

hSOS1 and hKRASG12C = target: T2, hSOS1 and hKRASG12C (Homo sapiens, UniProt Q07889); assay: biochemical
T2 sequence (Q07889 564-1049): T1 sequence (Q07889 564-1049)

[2] = test system: MIA PaCa-2 human pancreatic cancer xenograft; assay: Tumor growth inhibition in subchronic xenograft model; assay type: in vivo; details: MIA PaCa-2 xenograft in nude mice, 50 mg/kg b.i.d.
Experimental: In vivo efficacy of compound 87 was evaluated in MIA PaCa-2 human pancreatic cancer xenograft model in nude mice.
20×10^6 MIA PaCa-2 cells were injected subcutaneously in the presence of PBS and matrigel in 1:1 ratio in nude mice. The tumor-bearing mice were randomized once the tumors reached an average volume of approximately 154-159 mm^3 (Tumor volume range 107-248 mm^3). The mice were divided into the following groups (n=7-8/group): Vehicle control and compound 87 (50 mg/kg; b.i.d.).

Structure (SMILES) | pIC50 (pERK in DLD1 cells) | pIC50 (DLD-1 cell line) | pIC50 [1] | pIC50 (hSOS1 and hKRASG12C) | % tumor growth inhibition [2]
Cc1nc(N[C@H](C)c2cccc(C(F)(F)[C@](C)(O)CO)c2F)c2cc(N3CCOCC3)c3c(c2n1)CCC3 (racemic) [Compound 82a, (R/S)-3,3-difluoro-3-(2-fluoro-3-((R/S)-1-((2-methyl-6-morpholino-8,9-dihydro-7H-cyclopenta[h]quinazolin-4-yl)amino)ethyl)phenyl)-2-methylpropane-1,2-diol] | 6.70 to 9.00 | 5.22 to 6.30 | 7.52 to 9.00 | 8.00 to 9.00 | 
Cc1nc(N[C@H](C)c2cc(N)cc(C(F)(F)F)c2)c2cc(-c3ccc(=O)n(C)c3)c3c(c2n1)CCC3 [Compound 87, (R)-5-(4-((1-(3-amino-5-(trifluoromethyl)phenyl)ethyl)amino)-2-methyl-8,9-dihydro-7H-cyclopenta[h]quinazolin-6-yl)-1-methylpyridin-2(1H)-one] | 6.70 to 9.00 | 5.22 to 6.30 | 7.15 to 7.51 | 8.00 to 9.00 | more than 70%
